Earlier results as cited in patent US20230371513A1, “PHOTOSTABLE COMPOSITION AND METHOD OF REDUCING OR CONTROLLING WEED POPULATION APPLYING SAID COMPOSITION” (UPL DO BRASIL INDUSTRIA E COMERCIO DE INSUMOS AGROPECUARIOS …, priority 2020, published 2023).

Details: buffer

In the case of `Cc1nn(-c2cc(NS(C)(=O)=O)c(Cl)cc2Cl)c(=O)n1C(F)F` [sulfentrazone], the “half-life, direct photolysis” value is given as 1 to 12 h.
